Results on 93 compounds are retold here after the kinase profiling compilation of Christmann-Franck et al. (2016).

The target of the assay is SGK1 (human) (UniProt O00141). Description: Flashplate.

pKi: −log10 of the molar value. Where only a bound is given, the exact number is not on record here.

Chain of SGK1 (human) (O00141 whole entry, looked up): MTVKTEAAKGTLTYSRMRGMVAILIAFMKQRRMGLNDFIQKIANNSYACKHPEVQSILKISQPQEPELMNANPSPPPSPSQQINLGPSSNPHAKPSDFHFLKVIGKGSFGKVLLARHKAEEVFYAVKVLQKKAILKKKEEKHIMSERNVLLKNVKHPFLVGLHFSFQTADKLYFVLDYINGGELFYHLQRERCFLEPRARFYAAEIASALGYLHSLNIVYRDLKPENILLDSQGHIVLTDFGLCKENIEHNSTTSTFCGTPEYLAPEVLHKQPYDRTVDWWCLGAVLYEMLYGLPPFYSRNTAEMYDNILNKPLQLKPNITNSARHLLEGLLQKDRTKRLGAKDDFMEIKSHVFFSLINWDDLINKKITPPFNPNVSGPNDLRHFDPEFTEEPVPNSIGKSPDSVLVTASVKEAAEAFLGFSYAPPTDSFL

On to `C[C@H](Nc1c(Nc2ccncc2)c(=O)c1=O)C1CCCCC1`, for which the pKi was less than 5.00. Under `N[C@@H](Cc1c[nH]c2ccccc12)C(=O)Nc1cncc(/C=C/c2ccncc2)c1` stands 5.50; under `Cc1[nH]c(/C=C2\C(=O)Nc3ccccc32)c(C)c1CCC(=O)O`, 5.30; under `Cc1cccc(NC(=O)Nc2ccc(-c3csc4c(C#CC(C)(C)N)cnc(N)c34)cc2)c1`, 5.50. As for `Cc1cc(C)cc(NC(=O)Nc2ccc3c(c2)CCc2sc4ncnc(N)c4c2-3)c1`, the figure is less than 5.00; as for `COc1cc(-c2ccc3c(c2)Nc2ccc([N+](=O)[O-])cc2NC3=O)ccc1O`, less than 5.00; as for `Cc1ccccc1NC(=O)Nc1ccc(NC(=O)c2csc3ncnc(N)c23)cc1`, less than 5.00. Under `O=C1CC(c2ccc(Cl)cc2Cl)Cc2[nH]c3cc(Cl)ccc3c(=O)c21` (stereo not drawn) stands less than 5.00.

Turning to `Nc1n[nH]c2cccc(-c3ccc(NC(=O)Nc4ccccc4)cc3)c12`, the pKi was 6.00.

On to `O=C1Nc2ccccc2Nc2nnc(Cl)cc21`, for which the pKi is 5.30.

As to `CC(C)(C)NC(=O)c1ccc2nc3[nH]c4ccccc4c3nc2c1`, the pKi is less than 5.00. `N[C@H](COc1cncc(-c2cc3cnccc3s2)c1)Cc1c[nH]c2ccccc12` had a pKi of 6.00. Under `COc1ccc2c(NC(=O)Nc3cccc(C(F)(F)F)n3)ccnc2c1` stands less than 5.00; under `CC[C@@H]1C(=O)N(C)c2cnc(Nc3ccc(C(=O)NC4CCN(C)CC4)cc3OC)nc2N1C1CCCC1`, less than 5.00. As for `CN1CCC(NC(=O)c2cc3c(-c4ccccc4)n[nH]c3s2)CC1`, the figure is 5.20; as for `Cc1nccn2c(-c3ccnc(NCC(C)(C)O)n3)c(-c3ccc(F)cc3F)nc12`, less than 5.00. As for `Nc1n[nH]c2cccc(-c3ccc(Br)cc3)c12`, the figure is 5.30; as for `CC(C)Cn1c(N)nc2ccc(-c3c(-c4ccc(F)cc4)nc4sccn34)cc21`, less than 5.00; as for `Cn1cc(-c2cnc(N)c3c(-c4ccc(NC(=O)Nc5ccc(OC(F)F)cc5)cc4)csc23)cn1`, less than 5.00. As to `N#Cc1cnc(NC(=O)Nc2ccc3cc(C(=O)O)ccc3c2)cn1`, the pKi is less than 5.00.

For `CNC(=O)N1CCN(CCCOc2ccc3c(c2)-c2[nH]nc(-c4ccc(C#N)nc4)c2C3)CC1`, the pKi is less than 5.00. For the compound `C[C@@H](N)C1CCC(C(=O)Nc2ccncc2)CC1` (stereo partly drawn), the pKi was less than 5.00. As for `Cc1n[nH]c2c1C(c1ccccc1Cl)C(C#N)=C(N)O2` (stereo not drawn), the figure is less than 5.00; as for `COCCO[C@H]1CC[C@H](n2nc(-c3ccc(Nc4nc5cc(C)cc(C)c5o4)cc3)c3c(N)ncnc32)CC1`, less than 5.00. `Cc1cc(C)c(C)c(OCCCc2c(C(=O)O)[nH]c3c(-c4ccccc4C)cccc23)c1` had a pKi of less than 5.00. As for `N[C@H]1CC[C@H](Nc2nccc(-c3c[nH]c4ncccc34)n2)CC1`, the figure is 7.30; as for `Nc1c(-c2ccc(NC(=O)Nc3cccc(C(F)(F)F)c3)cc2)ccc2nccnc12`, less than 5.00; as for `CCN(CCCOc1ccc2c(Nc3cc(CC(=O)Nc4cccc(F)c4)[nH]n3)ncnc2c1)CCOP(=O)(O)O`, less than 5.20. On to `NCCCn1cc(-c2cc(-c3cc4ccccc4s3)c3[nH]ncc3c2)c2nc(N)ncc21`, for which the pKi is 6.30. In turn, `COc1cc2ncn(-c3cc(OCc4ccccc4C(F)(F)F)c(C(=O)O)s3)c2cc1OC` had a negative logarithm of the Ki (pKi) of less than 5.00. As for `Cc1cc(N2CCOCC2)cc2[nH]c(-c3c(NC[C@@H](O)c4cccc(Cl)c4)cc[nH]c3=O)nc12`, the figure is less than 5.00; as for `Brc1cnc2[nH]cc(-c3ccccc3)c2c1`, 5.80. As for `COc1cc(Nc2ncc3c(n2)-c2ccc(Cl)cc2C(c2c(F)cccc2OC)=NC3)ccc1C(=O)O`, the figure is less than 5.00; as for `COCCO[C@H]1CC[C@H](n2nc(-c3ccc(Nc4nc5cc(C)cc(Cl)c5o4)cc3)c3c(N)ncnc32)CC1`, less than 5.00; as for `CCOc1nc(C(=O)NCc2ccncc2)cc(N)c1C#N`, less than 5.00. `NC(=O)c1cc2c(-c3ccc(F)cc3)cncc2s1`: the pKi was 5.40. In the case of `O[C@H]1CC[C@H](Nc2cc(Cl)nc(-c3c[nH]c4ncccc34)n2)CC1`, the pKi was 6.00. Compound `OC(COc1cncc(/C=C/c2ccncc2)c1)Cc1c[nH]c2ccccc12` (stereo not drawn) gave a pKi of less than 5.00. As for `Cc1cc(O)ccc1-n1cc(C(=O)NN)c(=O)c2ccc(-c3ccncc3)cc21`, the figure is less than 5.00; as for `Nc1ncnc2c1c(I)nn2[C@H]1CC[C@@H](O)CC1`, 5.70; as for `Nc1n[nH]c2ccc(-c3nnn(Cc4ccccc4)c3-c3ccccc3)cc12`, 6.20. `Cc1cccc(-c2c(-c3ccncc3)nc(NC[C@@H](N)Cc3ccccc3)n(C)c2=O)c1` gave a pKi of less than 5.00. Regarding `CCN(CC)CC#Cc1cnc(N)c2c(-c3ccc(NC(=O)Nc4cccc(C)c4)cc3)csc12`, the pKi was less than 5.00.

`O=C(Nc1cnc2[nH]cc(-c3ccccc3)c2c1)c1ccc(Cl)cc1` showed a pKi of 5.30.

`COc1ccc(OC)c(Nc2ccc3nnc(-c4ccccc4)n3n2)c1`: the pKi is less than 5.00. Under `CC(C)(C)c1cnc(CSc2cnc(NC(=O)C3CCNCC3)s2)o1` stands less than 5.20; under `Cc1n[nH]c2ccc(-c3cncc(OC[C@@H](N)Cc4ccc(Cl)c(Cl)c4)c3)cc12`, 7.10. Compound `Cc1c(-c2cccc(OCc3ccccc3)c2)c2c(N)ncnc2n1[C@H]1C[C@H](CN2CCCC2)C1` had a pKi of less than 5.00. In the case of `CCOC(=O)c1cccc2[nH]c(-c3ccc(N4CCC(N)C4)cc3)nc12` (stereo not drawn), the pKi was less than 5.00. Compound `NCC1CCC(CNc2nc(NCc3ccccc3Cl)ncc2[N+](=O)[O-])CC1` (stereo not drawn) gave a pKi of 5.30. As to `O=C(c1cc(Cc2n[nH]c(=O)c3c2CCCC3)ccc1F)N1CCN(c2ncccn2)CC1`, the pKi was less than 5.00. Under `O=C(N/N=C/c1ccc(Sc2nc3ccccc3[nH]2)o1)c1cccc([N+](=O)[O-])c1` stands less than 5.00. As for `CC(=O)N[C@@H]1CCN(c2nc3[nH]cc(C(=O)O)c(=O)c3c(C)c2F)C1`, the figure is less than 5.00.

For `Cc1ccc(CNc2c(Nc3ccncc3)c(=O)c2=O)cc1`, the pKi was 5.40. `COc1ccc(NC(=O)Nc2ccc(-c3cccc4onc(N)c34)cc2)cc1Cl` showed a pKi of less than 5.00. As for `CC(C)(C)OC(=O)n1ncc2cc(Nc3c(NCc4ccc(S(N)(=O)=O)cc4)c(=O)c3=O)ccc21`, the figure is less than 5.00; as for `CSc1ccccc1CNc1ncc([N+](=O)[O-])c(NCC2CCC(CN)CC2)n1` (stereo not drawn), 5.20; as for `CC1=NN(c2cccc(Br)c2)C(=O)/C1=C/c1c(C)c(C#N)c2nc3ccccc3n2c1O`, less than 5.00. As for `Cc1cnc(-c2cnc(NCCNc3ccc(C#N)cn3)nc2-c2ccc(Cl)cc2Cl)[nH]1`, the figure is less than 5.00; as for `Fc1ccc(-c2nc(-c3ccc(F)cc3)c(-c3ccncc3)[nH]2)cc1`, less than 5.00. Consider `NC(=O)c1cc(-c2ccnc(N)n2)[nH]c1-c1ccc(Cl)cc1F`, for which the pKi is 5.40. On to `Cc1ccc2nccc(NC(=O)Nc3cccc(C(F)(F)F)n3)c2c1`, for which the pKi was less than 5.00. The compound `Cc1ccc(NC(=O)Nc2ccc(-c3cccc4c3CNC4=O)cc2)cc1C` had a pKi of less than 5.00. Under `Cc1cccc(Nc2nccc(Nc3c(N[C@H](C)C(C)(C)C)c(=O)c3=O)n2)c1` stands 6.00; under `CN(C(=O)C1CCCCC1)c1ccc2c(c1)nc(NC(=O)c1ccc(C#N)cc1)n2CCC(N)=O`, less than 5.00. Under `COc1cc(-c2ccc3c(c2)NC(=O)c2ccc(-c4ccccc4NS(C)(=O)=O)cc2N3)cc(OC)c1OC` stands less than 5.10; under `CNC(=O)c1cnc(N)c2c(-c3ccc(NC(=O)Nc4cc(C)ccc4F)cc3)csc12`, 5.30. Under `COc1cc(C=O)c(Cl)cc1NC(=O)Nc1cnc(C#N)cn1` stands less than 5.00. With `O=C(Cc1ccccc1)Nc1cccc(-c2nc3sccn3c2-c2ccnc(Nc3cccc(N4CCOCC4)c3)n2)c1`, the pKi was less than 5.00. Under `O=C(Nc1ccc2[nH]ncc2c1)c1ccc(Cl)cc1` stands 5.10. In turn, `C#Cc1cccc(Nc2ncnc3cc(OCCOC)c(OCCOC)cc23)c1` had a pKi of less than 5.00.

Take `Cc1cc(C)c(/C=C2\C(=O)Nc3ccccc32)[nH]1`: the pKi was 5.70.

The compound `CN(C)c1cc2sncc2cc1NC(=O)C(=O)O` showed a pKi of less than 5.00. As for `O=c1[nH]cc(I)c2nc(-c3ccccc3)cn12`, the figure is less than 5.00. As for `CNc1nccn2c(-c3ccnc(NCC(C)(C)CO)n3)c(-c3ccc(F)cc3)nc12`, the figure is less than 5.00.

The compound `CCCC(=O)Nc1n[nH]c2ccc(-c3cccc(F)c3F)cc12` gave a pKi of less than 5.00. As for `FC(F)(F)Oc1ccc(-c2ccc3[nH]cc(C4=CCNCC4)c3c2)cc1`, the figure is less than 5.00; as for `COc1cc(C(=O)O)c(Cl)cc1NC(=O)Nc1cnc(C#N)cn1`, less than 5.00.

`Cn1nc(N)c2c(-c3ccc(NC(=O)Nc4cccc(C(F)(F)F)c4)cc3)cncc21`: the pKi was less than 5.00. As for `Cc1cccc(NC(=O)Nc2ccc(-c3csc4c(C#CCN)cnc(N)c34)cc2)c1`, the figure is 5.40. As for `COc1ccc(/C=C2/C(=O)ON=C2c2ccc(Br)cc2)cc1OC`, the figure is less than 5.00. As for `CC(=O)NCC(=O)N1C2CCC1c1cc(Nc3ncc(C(F)(F)F)c(NC4CCC4)n3)ccc12` (stereo not drawn), the figure is 6.40; as for `O=C1NC(=S)S/C1=C1\C(=O)Nc2ccc(Br)cc21`, 5.70; as for `COc1cccc(C(=O)Nc2cnc3[nH]cc(-c4ccccc4)c3c2)c1`, 5.70. The compound `NC[C@@H](O)[C@@H](O)Cn1cc(I)c2c(N)ncnc21` gave a pKi of 5.30. Consider `CC(C)(C)n1nc(-c2ccc(Cl)cc2)c2c(N)ncnc21`, for which the pKi is less than 5.20. `OCC[C@@H](Nc1nc2ccc(-c3ccncc3)cc2s1)c1ccccc1`: the pKi was 6.00.

Consider `OCCCn1cnc(-c2ccccc2)c1-c1ccncc1`, for which the pKi was less than 5.00.

For the compound `CN1CC[C@H]1COc1cncc(CCc2ccncc2)c1`, the pKi was less than 5.00.

For the compound `O=C(NC(CO)c1cc(Cl)cc(Cl)c1)c1ccc(-c2ccncc2)cc1` (stereo not drawn), the pKi is 5.40.

`CC1=NN(c2ccc(C(=O)O)cc2)C(=O)/C1=C/c1c(C)c(C#N)c2nc3ccccc3n2c1O` showed a pKi of less than 5.00. Under `O=c1[nH]c2cc(-c3ccccc3)cnc2[nH]1` stands less than 5.00. On to `Cc1cccc(NC(=O)Nc2ccc(-c3csc4c(C#CCNS(C)(=O)=O)cnc(N)c34)cc2)c1`, for which the pKi was 5.00.
